Data published in publication PMC10283505, “CVM-1118 (foslinanib), a 2-phenyl-4-quinolone derivative, promotes apoptosis and inhibits vasculogenic mimicry via targeting TRAP1” (Pathology and Oncology Research, 2023).
Several values for one entry are separate records, joined by “and”; a condition that tells them apart may be missing. Identical values can stand only once.

Assays:
Integrin β4 = Integrin β4 (Homo sapiens, UniProt P16144); test: Surface plasmon resonance (Biacore); format: binding; conditions: Integrin β4, SPR
Sequence of Integrin β4 (P16144 28-1822): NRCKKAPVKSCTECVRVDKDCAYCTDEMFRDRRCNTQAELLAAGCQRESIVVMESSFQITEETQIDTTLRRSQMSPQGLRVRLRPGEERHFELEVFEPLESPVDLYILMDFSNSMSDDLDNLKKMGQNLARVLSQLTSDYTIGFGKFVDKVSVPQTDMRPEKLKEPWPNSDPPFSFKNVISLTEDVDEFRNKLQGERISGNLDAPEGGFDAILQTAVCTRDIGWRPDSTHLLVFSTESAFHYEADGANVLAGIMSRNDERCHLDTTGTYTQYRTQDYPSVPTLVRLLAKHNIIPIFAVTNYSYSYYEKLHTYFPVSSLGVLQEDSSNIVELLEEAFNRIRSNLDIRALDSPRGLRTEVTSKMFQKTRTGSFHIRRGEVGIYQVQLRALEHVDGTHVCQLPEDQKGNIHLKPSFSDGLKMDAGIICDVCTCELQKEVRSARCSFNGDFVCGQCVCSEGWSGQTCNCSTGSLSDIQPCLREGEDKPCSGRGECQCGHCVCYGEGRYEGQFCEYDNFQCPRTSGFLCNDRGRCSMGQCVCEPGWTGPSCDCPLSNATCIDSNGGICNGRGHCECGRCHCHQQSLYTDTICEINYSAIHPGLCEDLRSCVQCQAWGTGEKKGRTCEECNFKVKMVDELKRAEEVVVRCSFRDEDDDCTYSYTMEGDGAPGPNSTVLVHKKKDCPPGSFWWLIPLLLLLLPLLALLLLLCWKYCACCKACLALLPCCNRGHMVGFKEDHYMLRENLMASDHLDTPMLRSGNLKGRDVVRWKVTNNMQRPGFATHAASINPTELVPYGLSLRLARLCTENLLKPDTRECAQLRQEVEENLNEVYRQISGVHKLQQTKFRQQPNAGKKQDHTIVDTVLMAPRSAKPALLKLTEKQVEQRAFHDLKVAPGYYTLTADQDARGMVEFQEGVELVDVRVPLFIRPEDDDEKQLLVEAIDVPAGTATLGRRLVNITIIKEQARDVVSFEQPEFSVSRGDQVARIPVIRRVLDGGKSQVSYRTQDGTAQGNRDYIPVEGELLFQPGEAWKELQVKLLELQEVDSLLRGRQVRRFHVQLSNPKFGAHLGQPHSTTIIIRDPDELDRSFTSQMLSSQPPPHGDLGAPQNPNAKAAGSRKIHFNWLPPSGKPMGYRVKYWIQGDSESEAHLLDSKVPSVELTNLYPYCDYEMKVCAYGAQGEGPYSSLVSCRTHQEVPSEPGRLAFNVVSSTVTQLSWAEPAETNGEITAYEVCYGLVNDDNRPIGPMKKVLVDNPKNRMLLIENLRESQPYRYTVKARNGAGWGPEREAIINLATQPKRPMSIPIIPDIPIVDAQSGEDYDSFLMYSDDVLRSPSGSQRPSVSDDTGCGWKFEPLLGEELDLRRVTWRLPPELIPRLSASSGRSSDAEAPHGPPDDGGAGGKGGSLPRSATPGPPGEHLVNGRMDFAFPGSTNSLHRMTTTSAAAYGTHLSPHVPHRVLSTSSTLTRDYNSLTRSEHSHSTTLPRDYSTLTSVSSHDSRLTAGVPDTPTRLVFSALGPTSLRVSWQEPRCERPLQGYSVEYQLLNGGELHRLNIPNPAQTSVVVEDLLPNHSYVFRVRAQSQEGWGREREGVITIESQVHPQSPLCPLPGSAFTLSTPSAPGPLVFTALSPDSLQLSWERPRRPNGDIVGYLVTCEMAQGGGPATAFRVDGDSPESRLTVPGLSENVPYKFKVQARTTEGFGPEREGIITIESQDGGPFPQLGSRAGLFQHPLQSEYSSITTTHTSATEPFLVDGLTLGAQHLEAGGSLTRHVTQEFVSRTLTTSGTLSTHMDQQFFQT

TGFβ1/1 (HIC5) = TGFβ1/1 (HIC5) (Homo sapiens, UniProt O43294); test: Surface plasmon resonance (Biacore); format: binding; conditions: TGFβ1/1, SPR
Sequence of TGFβ1/1 (HIC5) (O43294 whole entry): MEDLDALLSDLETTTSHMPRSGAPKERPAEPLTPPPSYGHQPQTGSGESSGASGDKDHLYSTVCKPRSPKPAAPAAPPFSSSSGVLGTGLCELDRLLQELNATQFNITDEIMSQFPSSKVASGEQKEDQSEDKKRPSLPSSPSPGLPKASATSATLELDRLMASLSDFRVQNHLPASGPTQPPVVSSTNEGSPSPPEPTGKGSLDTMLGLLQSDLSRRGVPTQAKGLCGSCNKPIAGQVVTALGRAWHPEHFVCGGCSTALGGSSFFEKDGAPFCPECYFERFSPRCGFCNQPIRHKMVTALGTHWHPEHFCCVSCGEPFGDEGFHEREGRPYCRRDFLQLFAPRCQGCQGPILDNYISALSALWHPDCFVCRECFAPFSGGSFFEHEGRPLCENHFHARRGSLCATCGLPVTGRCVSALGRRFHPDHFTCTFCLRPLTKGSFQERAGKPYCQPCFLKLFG

GADD45GIP1 = GADD45GIP1 (Homo sapiens, UniProt Q8TAE8); test: Surface plasmon resonance (Biacore); format: binding; conditions: GADD45GIP1, SPR
HIF-1α = test: Western blot of HIF-1α protein (hypoxia); format: cell-based, human; conditions: hypoxia 72 h
Description: Changes in the expression HIF-1α protein in SK-MEL28, SK-OV3, MDA-MB-231 and COLO205 cells in response to treatment with CVM-1125 was performed as follows: 5.0 × 10^6 cells were grown under hypoxic conditions (as previously described) for 72 h, with or without 100 nM CVM-1125 in T175 culture flasks, then sub-confluent cultures harvested and whole cell protein lysates prepared and analyzed by Western blot (as above). Thirty micrograms of protein was loaded per lane of the gel for each sample followed by detection of HIF-1α protein on the final blot using a polyclonal rabbit anti- HIF-1α antibody (#3716; Cell Signaling Technologies), secondary antibody plus HRP (NA934V), then ECL. The blots were then stripped and re-probed for β-actin protein as a control (as above).

SF-295 = test: NCI 60 cytotoxicity screening; format: cell-based; conditions: Homo sapiens; SF-295, CNS
HCT-116 = test: NCI 60 cytotoxicity screening; format: cell-based; conditions: Homo sapiens
MOLT-4 = test: NCI 60 cytotoxicity screening; format: cell-based; conditions: Homo sapiens; MOLT-4, Leukemia
TRAP1 [1] = target: T1, TRAP1 (Homo sapiens, UniProt Q12931); test: Surface plasmon resonance (Biacore); format: binding; parameters: purchased Abcam ab123775; conditions: TRAP1, SPR
T1 sequence (Q12931 60-704): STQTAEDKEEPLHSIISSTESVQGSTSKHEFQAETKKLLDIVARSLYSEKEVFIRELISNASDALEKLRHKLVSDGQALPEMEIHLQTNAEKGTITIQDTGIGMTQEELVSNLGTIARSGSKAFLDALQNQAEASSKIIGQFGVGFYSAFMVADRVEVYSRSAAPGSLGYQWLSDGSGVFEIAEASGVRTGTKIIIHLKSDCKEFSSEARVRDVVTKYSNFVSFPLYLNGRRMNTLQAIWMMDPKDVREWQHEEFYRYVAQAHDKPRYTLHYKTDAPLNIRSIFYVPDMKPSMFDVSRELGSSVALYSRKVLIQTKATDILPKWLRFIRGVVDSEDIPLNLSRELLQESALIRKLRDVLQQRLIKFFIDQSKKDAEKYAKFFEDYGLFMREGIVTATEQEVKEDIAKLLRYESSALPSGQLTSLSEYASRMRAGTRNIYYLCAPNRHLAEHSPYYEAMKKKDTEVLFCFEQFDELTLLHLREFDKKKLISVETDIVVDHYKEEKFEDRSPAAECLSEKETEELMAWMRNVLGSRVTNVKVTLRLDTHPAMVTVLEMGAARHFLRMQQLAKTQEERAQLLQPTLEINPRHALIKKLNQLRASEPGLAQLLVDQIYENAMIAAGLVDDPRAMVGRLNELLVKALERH
Description: To confirm the molecular binding of the targeted protein, Surface Plasmon Resonance (SPR) was performed with a Biacore 3000. TRAP1 recombinant protein (Abcam, ab123775) or human Hsp90 recombinant protein (HSP90AB1, Abcam, ab131923) were immobilized on a CM5 sensor chip surface using the amine coupling method according to the manufacturer’s instruction (Biacore, GE Healthcare). CVM-1125 was dissolved in sodium carbonate buffer (pH 9) and then diluted in HBS-EDTA-P20 buffer to desired concentrations (five serial dilutions from 1 × 10^−5 to 1 × 10^−8 M) and injected at flow 30 μL/min with KINJET 60/180 %pos, analyte position, volume, and dissociation time. Specific binding was calculated using BiaEval 3 software.

TRAP1 [2] = target: T1, TRAP1; test: Western blot of TRAP1 protein level; format: cell-based; parameters: purchased Abcam ab123775
Description: The methods for detecting TRAP1 proteins were as follows: 4 × 10^5 SKOV-3 cells and 8 × 10^5 COLO-205 cells were seeded onto 6-well plates. After 18 h, the culture medium was changed to contain 50, 100, 200, and 400 nM CVM-1125, and samples were recovered for analysis at 24 or 48 h. To explore the pathway of CVM-1125 degradation of TRAP1 protein, the experimental design was as follows: 1 × 10^6 COLO-205 cells were seeded onto 6-well plates. After 18 h, the culture medium was changed to contain 200 nM CVM-1125, 25 µM chloroquine (CQ), and 2.5 µM MG132, and samples were recovered for analysis at 24 h. Cells at 80% confluence were collected with trypsin, centrifuged, and harvested by PBS into a sample buffer (1M Tris pH 6.8, 50% Glycerol, 10% SDS, 1% bromophenol blue, and 2-mercaptoethanol). Cell lysates were heated at 95°C for 10 min and loaded onto 10% SDS-PAGE. Proteins separated on the gel were transferred to a 0.45 μM PVDF membrane (Merk Milipore, IPVH00010) at 4°C overnight and was then blocked at room temperature with 5% skim milk for 30 min. The primary antibodies were diluted with 5% skim milk in PBS for β-actin (Sigma, A5441, 1:20,000) and TRAP1 (Santa Cruz, sc-13557, 1:100) and incubated for 2 h at room temperature. […]

`COc1ccc2[nH]c(-c3cccc(F)c3)cc(=O)c2c1O` [CVM-1125] was tested, and the “Association (ka)” value (Integrin β4) was “No dose dependent interaction”, the “Dissociation (kd)” value (Integrin β4) was “No dose dependent interaction” and the “KD (kd/ka)” value (Integrin β4) was “No dose dependent interaction”. The “Association (ka)” value (TGFβ1/1 (HIC5)) was “No dose dependent interaction”, the “Dissociation (kd)” value (TGFβ1/1 (HIC5)) was “No dose dependent interaction” and the “KD (kd/ka)” value (TGFβ1/1 (HIC5)) was “No dose dependent interaction”. The “Association (ka)” value (GADD45GIP1) was “No interaction”, the “Dissociation (kd)” value (GADD45GIP1) was “No interaction” and the “KD (kd/ka)” value (GADD45GIP1) was “No interaction”. For the same compound, the “reduction of HIF-1α protein levels” value (HIF-1α; COLO205, 100 nM) was 9%, the “reduction of HIF-1α protein levels” value (HIF-1α; MDA-MB-231, 100 nM) was 17% and the “reduction of HIF-1α protein levels” value (HIF-1α; SK-MEL28, 100 nM) was 28%. The “reduction of HIF-1α protein levels” value (HIF-1α; SKOV3, 100 nM) was 25%, the GI50 (SF-295) was 25.5 nM and the GI50 (HCT-116; HCT-116, Colon) was 33 nM. It also gave an IC50 (HCT-116; HCT-116, refers to Supplementary Table S2) of 33 nM, a GI50 (MOLT-4) of 47.6 nM and a kon (TRAP1 [1]; read-out: Association (ka)) of 30200 M⁻¹ s⁻¹. For the same compound, the Kd (TRAP1 [1]; read-out: KD (kd/ka)) was 67 nM and 66.8 nM, the TRAP1 protein levels (TRAP1 [2]; COLO205, 50–400 nM) was “reduced with increasing concentrations” and the TRAP1 protein levels (TRAP1 [2]; SKOV3, 50–400 nM) was “reduced with increasing concentrations”.
